{
  "source": "paper PMC7604414",
  "about": "“Favipiravir at high doses has potent antiviral activity in SARS-CoV-2−infected hamsters, whereas hydroxychloroquine lacks activity” (Proceedings of the National Academy of Sciences of the …, 2020)",
  "key": {"[1]": {"assay": "Calculation of HCQ blood, total lung and lung compartment concentrations", "set-up": "species or system Syrian hamsters", "procedure": "Starting from the measured total trough plasma concentrations measured at killing after 4 d or 5 d of HCQ treatment, total lung cytosolic concentrations of HCQ were calculated. First, the mean trough total plasma concentration of HCQ was used as a starting point to estimate the whole blood concentrations considering a blood to plasma ratio of 7.2, as reported by Tett et al. ([50]) and as mentioned in the summary of product characteristics of Plaquenil (Sanofi) (Eq. 1). whole blood concentration=plasma concentration×7.2.\nRelying on the experimental Kp (tissue versus whole blood partition coefficient) values in rats, the total lung tissue concentrations of HCQ were determined. Based on the partition values as reported by Wei et al. ([51]), a lung Kp value of 50 was applied to estimate the total lung concentration (Eq. 2). total lung tissue concentration=mean blood concentration×50.\nBased on these calculations, lung cytosolic HCQ concentrations correspond to 6% of the total lung tissue concentration (Eq. 3). total cytosolic lung tissue concentration=total lung tissue concentration×0.06."}, "[2]": {"test_system": "SARS-CoV-2", "assay": "Reported in vitro EC50 values of HCQ against SARS-CoV-2", "format": "cell-based", "settings": "equated to 3 times the reported EC50"}, "[3]": {"test_system": "SARS-CoV-2", "settings": "hamster, in vivo"}, "[4]": {"test_system": "SARS-CoV-2", "settings": "interquartile range of 5.4 (25 to 75%); read-out: reported in vitro EC50, median value; cited from earlier work"}, "[5]": {"set-up": "method as in ref 50 (Tett et al.) and summary of product characteristics of Plaquenil", "settings": "ref 50 (Tett et al.) and summary of product characteristics of Plaquenil; cited from earlier work"}, "[6]": {"set-up": "method as in ref 51 (Wei et al.)", "settings": "rats, ref 51 (Wei et al.); cited from earlier work"}, "[7]": {"test_system": "SARS-CoV-2", "set-up": "method as in PMID 32444382", "settings": "cited from earlier work"}, "[8]": {"test_system": "SARS-CoV-2", "set-up": "method as in ref 13 = [13]; 13 P. Maisonnasse ., Hydroxychloroquine in the treatment and prophylaxis of SARS-CoV-2 infection in non-human primates . Research Square:10.21203/RS.3.RS-27223/V1 (6 May 2020) .", "settings": "therapeutic and prophylactic setting; cited from earlier work"}, "[9]": {"test_system": "SARS-CoV-2", "set-up": "method as in PMID 32492293", "settings": "postexposure prophylaxis, high doses of HCQ; cited from earlier work"}, "[10]": {"test_system": "COVID-19", "set-up": "method as in ref 32 = [32]; 32 P. W. Horby , M. Landray , “Press release: No clinical benefit from use of hydroxychloroquine in hospitalised patients with COVID-19” (University of Oxford, 2020) .", "settings": "patients admitted with COVID-19; cited from earlier work"}, "[11]": {"settings": "value applied in pH partition calculation; cited from earlier work"}, "[12]": {"assay": "HCQ plasma trough concentrations in hamsters (HPLC-MS)", "settings": "female, Syrian, hamster, intraperitoneal, 50 mg/kg/d"}, "[13]": {"assay": "Favipiravir plasma trough concentrations in hamsters", "format": "in vivo, Syrian hamsters", "settings": "for concentration at 16 h after last treatment: female, hamster, plasma"}, "[14]": {"test_system": "SARS-CoV-2", "set-up": "method as in PMID 33741945", "settings": "cited from earlier work"}, "[15]": {"set-up": "method as in PMID 32405421", "settings": "cited from earlier work"}, "[16]": {"test_system": "COVID-19", "set-up": "method as in ref 39 = [39]; 39 C. Chen ., Favipiravir versus arbidol for COVID-19: A randomized clinical trial . medRxiv:10.1101/2020.03.17.20037432 (20 March 2020) .", "settings": "cited from earlier work"}, "[17]": {"settings": "human, in vivo; cited from earlier work"}},
  "note": "Values joined by “and” are separate entries in the source; they are usually repeats but may differ in a detail not shown here. Equal entries are not always repeated. Where two headings read alike, the source gives them in different places.",
  "data": [
    {"smiles": "CCN(CCO)CCCC(C)Nc1ccnc2cc(Cl)ccc12", "note": "(stereo not shown) [HCQ, hydroxychloroquine]", "values": [
      {"measurement": "lung cytosolic HCQ concentration as share of total lung tissue concentration", "setting": "[1]; pH partition theory, relative lung compartment volumes", "result": 6, "unit": "%"},
      {"measurement": "endosomal/lysosomal HCQ concentration", "setting": "[1]; trough, HCQ sulfate 50 mg/kg/d", "result": 1.9, "unit": "mM"},
      {"measurement": "interstitial concentration in lung", "setting": "[1]; trough, HCQ sulfate 50 mg/kg/d", "result": 5.4, "unit": "µM"},
      {"measurement": "total lung concentration (Eq. 2)", "setting": "[1]; trough, HCQ sulfate 50 mg/kg/d, blood concentration × 50", "result": "90.2 ± 69.4", "unit": "µM"},
      {"measurement": "whole blood concentration (Eq. 1)", "setting": "[1]; trough, HCQ sulfate 50 mg/kg/d, plasma concentration × 7.2", "result": "1.8 ± 1.4", "unit": "µM"},
      {"measurement": "total cytosolic lung tissue concentration (Eq. 3)", "setting": "[1]; trough, HCQ sulfate 50 mg/kg/d, total lung × 0.06", "result": "5.4 ± 4.2", "unit": "µM"},
      {"measurement": "estimated EC90 (3 times the EC50), target lung concentration", "setting": "[2]", "result": "13.5 ± 16.3", "unit": "µM"},
      {"measurement": "radiological improvement (micro-CT) vs nontreated animals", "setting": "[3]", "result": "no radiological improvement"},
      {"measurement": "reduction in viral RNA load in the ileum or stool", "setting": "[3]", "result": "no reduction"},
      {"measurement": "reduction of infectious virus titers in the lungs", "setting": "[3]", "result": "no significant reduction"},
      {"measurement": "reduction of viral RNA in lung vs untreated infected hamsters", "setting": "[3]", "result": "0.3 log10 viral RNA copies per mg of lung"},
      {"measurement": "weight loss", "setting": "[3]", "result": "< 5", "unit": "%"},
      {"measurement": "EC50", "setting": "[4]", "result": 4.5, "unit": "µM"},
      {"measurement": "blood to plasma ratio", "setting": "[5]", "result": 7.2},
      {"measurement": "lung Kp (tissue versus whole blood partition coefficient)", "setting": "[6]", "result": 50},
      {"measurement": "virus titers in SARS-CoV-2-infected ferrets", "setting": "[7]", "result": "not able to significantly reduce"},
      {"measurement": "viral loads in SARS-CoV-2-infected cynomolgus macaques", "setting": "[8]", "result": "did not result in a significant decrease"},
      {"measurement": "prevention of SARS-CoV-2 infection or COVID-19-like disease", "setting": "[9]", "result": "did not prevent"},
      {"measurement": "mortality or duration of hospital stay", "setting": "[10]", "result": "did not result in a beneficial effect"},
      {"measurement": "pKa", "setting": "[11]", "result": 9.67},
      {"measurement": "concentration at 4 d post infection (at killing)", "setting": "[12]", "result": "84 ng/mL and 300 nM"}
    ]},
    {"smiles": "NC(=O)c1nc(F)c[nH]c1=O", "note": "[favipiravir]", "values": [
      {"measurement": "concentration at 16 h after last treatment", "setting": "[13]; Syrian, intraperitoneal, 1000 mg/kg/d, favipiravir 1,000 mg/kg/d i.p. BID for 4 d, read-out: plasma trough level", "result": "~4400", "unit": "ng/mL"},
      {"measurement": "concentration at 16 h after last treatment", "setting": "[13]; intraperitoneal, 1000 mg/kg/d, favipiravir 1,000 mg/kg/d i.p. BID for 4 d, read-out: plasma trough level", "result": "4400 ± 1600", "unit": "ng/mL"},
      {"measurement": "concentration at 16 h after last treatment", "setting": "[13]; intraperitoneal, favipiravir 600 mg/kg/d i.p. BID for 4 d, read-out: plasma trough level", "result": "1200 ± 300", "unit": "ng/mL"},
      {"measurement": "concentration at 16 h after last treatment", "setting": "[13]; favipiravir 300 mg/kg/d oral BID for 4 d, read-out: average plasma trough concentration", "result": "200 ± 30", "unit": "ng/mL"},
      {"measurement": "favipiravir trough concentrations in sentinel hamsters vs infection model", "setting": "[13]; preexposure prophylaxis with 300 and 1,000 mg/kg/d, dosing for 5 d", "result": "similar"},
      {"measurement": "decrease of viral RNA in lung vs untreated infected hamsters", "setting": "[3]", "result": "1.0 log10 RNA copies per mg of lung tissue"},
      {"measurement": "effect on viral RNA in ileum and stool", "setting": "[3]", "result": "a smaller effect"},
      {"measurement": "hamsters with infectious virus in the lungs", "setting": "[3]", "result": "two"},
      {"measurement": "histological lung pathology (H&E cumulative severity score)", "setting": "[3]", "result": "significant improvements"},
      {"measurement": "reduction in viral RNA levels in the lungs", "setting": "[3]", "result": "smaller inhibitory effect"},
      {"measurement": "reduction of relative infectivity of lung virus particles", "setting": "[3]", "result": "136 fold and 172 fold"},
      {"measurement": "relative lung viral particle infectivity (infectious particles / viral RNA genomes)", "setting": "[3]", "result": "did not decrease"},
      {"measurement": "weight loss", "setting": "[3]", "result": "over 5%"},
      {"measurement": "weight loss, on average", "setting": "[3]", "result": 2, "unit": "%"},
      {"measurement": "toxicity signs in clinical presentation", "setting": "[3]; ip", "result": "No toxicity signs"},
      {"measurement": "viral replication in the lung", "setting": "[14]; favipiravir 1,400 mg/kg/d TID started 1 d before intranasal infection", "result": "undetectable"},
      {"measurement": "toxicity (weight loss from first day of treatment)", "setting": "[14]; favipiravir 1,400 mg/kg/d TID", "result": "high toxicity"},
      {"measurement": "virus infection in hamsters", "setting": "[14]; favipiravir ~1,400 mg/kg/d TID", "result": "significant reductions"},
      {"measurement": "teratogenicity", "setting": "[15]", "result": "teratogenic"},
      {"measurement": "clinical recovery rate vs arbidol control group", "setting": "[16]; COVID-19 patients with hypertension and/or diabetes and critically ill patients", "result": "not significantly different"},
      {"measurement": "clinical recovery rate at day 7 vs arbidol control group", "setting": "[16]; COVID-19 patients with mild symptoms", "result": "higher"},
      {"measurement": "median plasma trough concentration", "setting": "[17]", "result": 25.9, "unit": "µg/mL"}
    ]}
  ]
}
